# Structures can show the parent of a compound that is named as a salt.
# System: Plasmodium falciparum
# Assay: In vitro anti-malarial activity against Plasmodium falciparum, IC50 assay / [3H]-Hypoxanthine incorporation assay
# Assay type: cell-based
# Conditions: Erythrocyte
# Protocol: The compounds of this invention may be tested in one of several biological assays to determine the concentration of compound which is required to have a given pharmacological effect. In vitro anti-malarial activity against Plasmodium falciparum. IC50 assay / [^3H]-Hypoxanthine assay
# The culture medium comprised RPMI 1640 with 25mM HEPES, sodium bicarbonate and glutamine (GIBCO™ cat. ref.: 52400), supplemented with 10% of pooled human sera AB (Irvine Scientific, cat. ref.: 5009) and HT supplement (0.15 mM hypoxanthine and 24 µM thymidine), (GIBCO™ cat. ref.: 41065). Human sera were decomplemented 30 min. at 56°C, aliquoted and stored frozen at -20°C until use in this culture medium.
# This culture medium ("complete medium") was usually prepared fresh just before use and pre-warmed to 37°C.
# Red blood cells O+ stock suspensions were prepared from whole blood bags coming from incomplete blood donation, provided by the Spanish Red Cross (<25 days after sampling). This "whole blood" was aliquoted and stored at 4°C.
# To prepare red blood cells for the assay, the whole blood was centrifuged and washed 3 times with RPMI without serum. The upper phase, containing white blood cells was removed. The washed red blood cells were kept as a 50 % suspension in complete medium. The prepared cells were stored at 4°C and were employed in the assay at any time up to 4 days after preparation.
# Test compounds were dissolved at 2 mg/ml in 100% DMSO on the day of the assay. If necessary, complete dissolution was achieved by gentle heating (the mixture was heated at a temperature <37°C) and sonication (sonication bath).
# For IC50 determinations, 10 serial 2-fold dilutions were prepared in complete medium in the presence of a constant amount of DMSO. Any obvious signs of insolubility of the stock solutions in 100% DMSO or precipitation when these solutions were diluted in assay media, were recorded.
# Plasmodium falciparum strains were maintained in complete medium at an hematocrit of 5% in continuous culture using a method adapted from that published by Trager and Jensen(1) and Traeger(2).
# The parasitemia was calculated by counting the percentage of parasitized erythrocytes by optical microscopy. Thin films of blood were made every day from each culture flask, fixed with methanol and stained for 10 min. in Giemsa (Merck, cat. ref.: 1.09204) at 10 % in buffered water pH 7.2. The glass slides were observed and counted with an optical microscope (Nikon, Eclipse E200) equipped with a 100 X immersion oil objective.
# The culture was maintained at an hematocrit of 5%, with a daily change of medium and was diluted when parasitemia had reached about 5%.
# [^3H] Hypoxanthine incorporation assay was conducted using a method adapted from Desjardins et al. (3). The assays were performed in 96 wells flat bottom microplates. • 1. Serial dilutions of the test compounds (50µl of a 5X solution / well) were deposited in duplicate. Compounds of the invention were tested in this assay. Chloroquine and Atovaquone were used as control compounds for each assay. • 2. […] [^3H]-Hypoxanthine (Amersham Biosciences, cat. ref.: TRK74) was added extemporaneously to the inoculum suspension at a concentration of 1 µCi/ml (equating to […]). 200 µl of the resulting suspension was distributed into each well (other than the control well H12 described below) leading to a final volume of 250 µl per well, at 2% of hematocrit and 0.5 % of parasitemia / well. • 4. […]
# [1] = Plasmodium falciparum strains in parasitized red blood cells, [3H]-hypoxanthine incorporation, 48 hours at 37°C
IC50 [1] [µg/mL],Structure (SMILES),IC50 (Plasmodium falciparum) [µg/mL]
< 0.125,"Cc1[nH]c(C)c(-c2ccc(C#CCN(C)Cc3ccccc3C(F)(F)F)cc2)c(=O)c1Cl [Example 3, 3-Chloro-2,6-dimethyl-5-{4-[3-(methyl{[2-(trifluoromethyl)phenyl]methyl}amino)-1-propyn-1-yl]phenyl}-4(1H)-pyridinone]",
< 0.125,"Cc1[nH]c(C)c(-c2ccc(C#CCN(C)Cc3ccsc3)cc2)c(=O)c1Cl.Cl [Example 45, 3-Chloro-2,6-dimethyl-5-(4-{3-[methyl(3-thienylmethyl)amino]-1-propyn-1-yl}phenyl)-4(1H)-pyridinone hydrochloride]",

# Further lines, the compound ahead of its results:
Structure (SMILES),IC50 [1] [µg/mL],IC50 (Plasmodium falciparum) [µg/mL]
"Cc1[nH]c(C)c(-c2ccc(C#CCN(Cc3ccc(OC(F)(F)F)cc3)CC3CCCC3)cc2)c(=O)c1Cl [Example 38, 3-Chloro-5-(4-{3-[(cyclopentylmethyl)({4-[(trifluoromethyl)oxy]phenyl}methyl)aminol-1-propyn-1-yl}phenyl)-2,6-dimethy)-4(1H)-pyridinone hydrochloride]",,< 0.125
"CCCN(CC#Cc1ccc(-c2c(C)[nH]c(C)c(Cl)c2=O)cc1)Cc1ccc(OC(F)(F)F)cc1.Cl [Example 21, 3-Chloro-2,6-dimethyl-5-(4-{3-[propyl({4-[(trifluoromethyl)oxy]phenyl}methyl)amino]-1-propyn-1-yl}phenyl)-4(1H)-pyridinone hydrochloride]",< 0.125,
"Cc1[nH]c(C)c(-c2ccc(-c3cccc(CN(C)Cc4ccc(OC(F)(F)F)cc4)c3)cc2)c(=O)c1Cl.Cl [Example 34, 3-Chloro-2,6-dimethyl-5-(3'-{[methyl({4-[(trifluoromethyl)oxy]phenyl}methyl)amino]methyl}-4-biphenylyl)-4(1H)-pyridinone hydrochloride]",< 0.125,

# Reference: EP2246329A1, “4(1H)-pyridinone derivatives and their use as antimalaria agents” (Glaxo Group Limited, priority 2009, dated 2010)
